Read-outs that look alike come from different tables or passages of the source.
Columns and labels:
U251 human CNS tumor = assay: In vivo antitumor activity, sc U251 xenograft; parameters: species or system Athymic mice (Ncr-nu)
OVCAR-5 ovarian tumor = assay: In vivo antitumor activity, sc OVCAR-5 xenograft; parameters: species or system Athymic mice (Ncr-nu); details: IP 90 mg/kg/dose, Days 12-16
MCF7 human mammary tumor = assay: In vivo antitumor activity, sc MCF7 xenograft; parameters: species or system Athymic mice (Ncr-nu)
[1] = tested on: human MX-1 mammary tumor (ic, 10^6 cells); assay: In vivo antitumor activity, i.c.-implanted MX-1 xenograft; details: for Median % ILS (dying mice only): Days 1-5
[2] = tested on: P388/CPA (cyclophosphamide-resistant) leukemia; assay type: in vivo, CD2F1 female mice; details: for 50-DAY SURV./TOTAL / % ILS / APPROX. NET LOG10 CHANGE IN TUMOR BURDEN AT END OF Rx: Q1D × 5 (1)
[3] = tested on: UISO-BCA-1 human mammary tumor; assay: In vivo antitumor activity, sc UISO-BCA-1 xenograft; parameters: species or system Athymic mice (Ncr-nu); details: IP 90 mg/kg/dose, Days 16-20
[4] = tested on: human MX-1 mammary tumor (sc, 30-40 mg fragments); assay: In vivo antitumor activity, s.c.-implanted MX-1 xenograft; parameters: species or system Athymic mice (Ncr-nu)
[5] = tested on: NCI-H82 small cell lung tumor; assay: In vivo antitumor activity, sc NCI-H82 xenograft; parameters: species or system Athymic mice (Ncr-nu)
[6] = tested on: P388/BCNU (carmustine-resistant) leukemia; assay: Antitumor activity against IP-implanted P388/BCNU leukemia
SK-MEL-28 melanoma = assay: In vivo antitumor activity, sc SK-MEL-28 xenograft; parameters: species or system Athymic mice (Ncr-nu); details: IP 90 mg/kg/dose, Days 8-12
HT29 human colon tumor = assay: In vivo antitumor activity, sc HT29 xenograft; parameters: species or system Athymic mice (Ncr-nu)
[7] = tested on: NCI-H460 nonsmall cell lung tumor; assay: In vivo antitumor activity, sc NCI-H460 xenograft; parameters: species or system Athymic mice (Ncr-nu); details: IP 90 mg/kg/dose, Days 6-10
CAKI-1 human renal tumor = assay: In vivo antitumor activity, sc CAKI-1 xenograft; parameters: species or system Athymic mice (Ncr-nu)
SF-295 CNS tumor = assay: In vivo antitumor activity, sc SF-295 xenograft; parameters: species or system Athymic mice (Ncr-nu); details: IP 90 mg/kg/dose, Days 9-13
[8] = tested on: ZR-75-1 human mammary tumor; assay: In vivo antitumor activity, sc ZR-75-1 xenograft; parameters: species or system Athymic mice (Ncr-nu)
[9] = tested on: P388/L-PAM (melphalan-resistant) leukemia; details: for activity in this tumor model (in words): mouse, in vivo
[10] = dogs; cited from earlier work
[11] = rats; cited from earlier work
[12] = one hour infusion for 5 consecutive days, patients; cited from earlier work
Cytotoxicity in vitro = assay type: cell-based
[13] = 14C-penclomedine, tumor-bearing rats; cited from earlier work
[14] = IP 60.0 mg/kg/dose, Q1D × 5 (1)
[15] = IP 90.0 mg/kg/dose, Q1D × 5 (1)
[16] = IP 135.0 mg/kg/dose, Q1D × 5 (1)
[17] = highest nontoxic doses evaluated, versus DM-PEN
[18] = highest nontoxic doses evaluated, versus PEN
[19] = oral (gavage) 135 mg/kg/dose, Days 13-17
[20] = optimal doses (LD10 or less), schedule QD1-5, administered LP.

COc1nc(C(Cl)(Cl)Cl)c(Cl)c(OC(C)=O)c1Cl [DM-A-PEN]
50-DAY SURV./TOTAL (P388/0 murine leukemia; [14]): 0/6
% ILS (P388/0 murine leukemia; [14]): +72%
APPROX. NET LOG10 CHANGE IN TUMOR BURDEN AT END OF Rx (P388/0 murine leukemia; [14]): −3.1
50-DAY SURV./TOTAL (P388/0 murine leukemia; [15]): 0/6
% ILS (P388/0 murine leukemia; [15]): +95%
APPROX. NET LOG10 CHANGE IN TUMOR BURDEN AT END OF Rx (P388/0 murine leukemia; [15]): −5.0
50-DAY SURV./TOTAL (P388/0 murine leukemia; [16]): 0/6
% ILS (P388/0 murine leukemia; [16]): +150%
APPROX. NET LOG10 CHANGE IN TUMOR BURDEN AT END OF Rx (P388/0 murine leukemia; [16]): ca −6.8
Lethality of the dosage (LD mark beside % ILS) (P388/0 murine leukemia; [16]): LD33
more active than DM-PEN by log cell kill (P388/0 murine leukemia; [17]): 1.9 log cell kill
more active than PEN by log cell kill (P388/0 murine leukemia; [18]): 0.4 log cell kill
Tumor-Free-Surv/Total (U251 human CNS tumor; IP 90 mg/kg/dose, Days 19-23): 0/5
activity (in words) (U251 human CNS tumor; s.c.-implanted): moderate to modest activity
T-C (OVCAR-5 ovarian tumor): 4.0 days
Tumor-Free-Surv/Total (OVCAR-5 ovarian tumor): 0/5
T-C (MCF7 human mammary tumor; IP 60 mg/kg/dose, Days 14-18): 7.1 days
Tumor-Free-Surv/Total (MCF7 human mammary tumor; IP 60 mg/kg/dose, Days 14-18): 0/5
activity (in words) (MCF7 human mammary tumor; s.c.-implanted): moderate to modest activity
Median % ILS (dying mice only) ([1]; IP 60 mg/kg/dose): +60%
Median % ILS (dying mice only) ([1]; oral (gavage) 135 mg/kg/dose): +88%
50-DAY SURV./TOTAL ([2]; IP 60.0 mg/kg/dose): 0/6
% ILS ([2]; IP 60.0 mg/kg/dose): +54%
APPROX. NET LOG10 CHANGE IN TUMOR BURDEN AT END OF Rx ([2]; IP 60.0 mg/kg/dose): −1.1
50-DAY SURV./TOTAL ([2]; IP 90.0 mg/kg/dose): 0/6
% ILS ([2]; IP 90.0 mg/kg/dose): +86%
APPROX. NET LOG10 CHANGE IN TUMOR BURDEN AT END OF Rx ([2]; IP 90.0 mg/kg/dose): −3.1
50-DAY SURV./TOTAL ([2]; IP 135.0 mg/kg/dose): 0/6
APPROX. NET LOG10 CHANGE IN TUMOR BURDEN AT END OF Rx ([2]; IP 135.0 mg/kg/dose): −5.7
more active than DM-PEN by log cell kill [2, 17]: 4.6 log cell kill
more active than PEN by log cell kill [2, 18]: 7.4 log cell kill
T-C [3]: -2.4 days
Tumor-Free-Surv/Total [3]: 0/5
T-C ([4]; IP 60 mg/kg/dose, Days 14-18): >38.3 days
Tumor-Free-Surv/Total ([4]; IP 60 mg/kg/dose, Days 14-18): 4/5
T-C ([4]; IP 60 mg/kg/dose, Days 15-19): >37.2 days
Tumor-Free-Surv/Total ([4]; IP 60 mg/kg/dose, Days 15-19): 3/5
T-C ([4]; IP 90 mg/kg/dose, Days 12-16): >41.0 days
Tumor-Free-Surv/Total ([4]; IP 90 mg/kg/dose, Days 12-16): 5/5
IP dosage marked (LD50) ([4]; IP, Days 15-19, sc MX-1 bearing mice): 60 (LD50) mg/kg/dose
T-C [4, 19]: >38.5 days
Tumor-Free-Surv/Total [4, 19]: 5/5
T-C ([5]; IP 60 mg/kg/dose, Days 13-17): 7.2 days
Tumor-Free-Surv/Total ([5]; IP 60 mg/kg/dose, Days 13-17): 0/5
activity (in words) ([5]; s.c.-implanted): moderate to modest activity
50-DAY SURV./TOTAL [6, 14]: 1/6
% ILS [6, 14]: +44%
APPROX. NET LOG10 CHANGE IN TUMOR BURDEN AT END OF Rx [6, 14]: 0
MEDIAN DAY OF DEATH [6, 14]: 13.0
50-DAY SURV./TOTAL [6, 15]: 0/6
% ILS [6, 15]: +77%
APPROX. NET LOG10 CHANGE IN TUMOR BURDEN AT END OF Rx [6, 15]: −2.3
50-DAY SURV./TOTAL [6, 16]: 0/6
APPROX. NET LOG10 CHANGE IN TUMOR BURDEN AT END OF Rx [6, 16]: −4.1
Lethality of the dosage (LD mark beside % ILS) [6, 16]: LD17
more active than DM-PEN by log cell kill [6, 17]: 1.5 log cell kill
more active than PEN by log cell kill [6, 18]: 3.5 log cell kill
T-C (SK-MEL-28 melanoma): 0.7 days
Tumor-Free-Surv/Total (SK-MEL-28 melanoma): 0/5
T-C (HT29 human colon tumor; IP 90 mg/kg/dose, Days 14-18): 5.8 days
Tumor-Free-Surv/Total (HT29 human colon tumor; IP 90 mg/kg/dose, Days 14-18): 0/5
activity (in words) (HT29 human colon tumor; s.c.-implanted): moderate to modest activity
T-C [7]: -0.6 days
Tumor-Free-Surv/Total [7]: 0/5
T-C (CAKI-1 human renal tumor; IP 90 mg/kg/dose, Days 19-23): 8.4 days
Tumor-Free-Surv/Total (CAKI-1 human renal tumor; IP 90 mg/kg/dose, Days 19-23): 0/5
activity (in words) (CAKI-1 human renal tumor; s.c.-implanted): moderate to modest activity
T-C (SF-295 CNS tumor): 0.7 days
Tumor-Free-Surv/Total (SF-295 CNS tumor): 0/5
Tumor-Free-Surv/Total ([8]; IP 60 mg/kg/dose, Days 10-14): 0/5
Tumor-Free-Surv/Total ([8]; IP 90 mg/kg/dose, Days 8-12): 0/5
activity (in words) ([8]; s.c.-implanted): moderate to modest activity
50-DAY SURV./TOTAL [9, 14]: 0/6
% ILS [9, 14]: +14%
APPROX. NET LOG10 CHANGE IN TUMOR BURDEN AT END OF Rx [9, 14]: +1.2
50-DAY SURV./TOTAL [9, 15]: 0/6
% ILS [9, 15]: +14%
APPROX. NET LOG10 CHANGE IN TUMOR BURDEN AT END OF Rx [9, 15]: +1.2
50-DAY SURV./TOTAL [9, 16]: 0/6
% ILS [9, 16]: +35%
APPROX. NET LOG10 CHANGE IN TUMOR BURDEN AT END OF Rx [9, 16]: −0.8
Lethality of the dosage (LD mark beside % ILS) [9, 16]: LD17
MEDIAN DAY OF DEATH [9, 16]: 19.8
more active than PEN or DM-PEN by log cell kill ([9]; highest nontoxic doses evaluated, versus PEN or DM-PEN): 0.2-0.3 log cell kill
activity in this tumor model (in words) [9]: none of the three showed significant activity

COc1nc(C(Cl)(Cl)Cl)c(Cl)c(OC)c1Cl [PEN, 3,5-dichloro-2,4-dimethoxy-6-(trichloromethyl)pyridine]
50-DAY SURV./TOTAL (P388/0 murine leukemia; [14]): 0/6
50-DAY SURV./TOTAL (P388/0 murine leukemia; [15]): 0/6
APPROX. NET LOG10 CHANGE IN TUMOR BURDEN AT END OF Rx (P388/0 murine leukemia; [15]): −0.8
50-DAY SURV./TOTAL (P388/0 murine leukemia; [16]): 0/6
APPROX. NET LOG10 CHANGE IN TUMOR BURDEN AT END OF Rx (P388/0 murine leukemia; [16]): −4.8
plasma penclomedine levels associated with severe emesis and seizures [10]: above 30 μM
neurotoxicity (muscle tremors, incoordination, convulsions, reduced activity) [11]: Dose related neurotoxicity
cures ([1]; Table 2 conditions): not
Median % ILS (based on dying mice only) [1, 20]: 88%
Survivors [1, 20]: 0/5
neurotoxicity (dysmetria, ataxia, vertigo) [12]: principal dose limiting toxicity
50-DAY SURV./TOTAL ([2]; IP 60.0 mg/kg/dose): 0/6
% ILS ([2]; IP 60.0 mg/kg/dose): −5%
50-DAY SURV./TOTAL ([2]; IP 90.0 mg/kg/dose): 0/6
% ILS ([2]; IP 90.0 mg/kg/dose): −5%
50-DAY SURV./TOTAL ([2]; IP 135.0 mg/kg/dose): 0/6
% ILS ([2]; IP 135.0 mg/kg/dose): −5%
50-DAY SURV./TOTAL [6, 14]: 0/6
% ILS [6, 14]: −6%
50-DAY SURV./TOTAL [6, 15]: 0/6
% ILS [6, 15]: 0%
MEDIAN DAY OF DEATH [6, 15]: 9.0
50-DAY SURV./TOTAL [6, 16]: 0/6
% ILS [6, 16]: +27%
activity as cytotoxic agents in vitro (Cytotoxicity in vitro): inactive
50-DAY SURV./TOTAL [9, 14]: 0/6
50-DAY SURV./TOTAL [9, 15]: 0/6
50-DAY SURV./TOTAL [9, 16]: 0/6
activity in this tumor model (in words) [9]: none of the three showed significant activity
radioactive species in the brain [13]: predominant radioactive species in the brain

From patent US6495571B1, “Pyridine compounds, use and preparation thereof” (Southern Research Institute, priority 1999, dated 2002)
